Test results published in ChEMBL document CHEMBL1129102, “Design, synthesis, and evaluation of fibrinogen inhibitors, -(p-amidinophenoxy) alkanoylaspartic acid derivatives” (Bioorg Med Chem Lett, 1996).

Target: Integrin alpha-IIb/beta-3 (Homo sapiens, UniProt P05106+P08514)
Experiment: Inhibition of human platelet adhesion to fibrinogen

Chain of Integrin alpha-IIb/beta-3 (P05106 27-788 limits assumed): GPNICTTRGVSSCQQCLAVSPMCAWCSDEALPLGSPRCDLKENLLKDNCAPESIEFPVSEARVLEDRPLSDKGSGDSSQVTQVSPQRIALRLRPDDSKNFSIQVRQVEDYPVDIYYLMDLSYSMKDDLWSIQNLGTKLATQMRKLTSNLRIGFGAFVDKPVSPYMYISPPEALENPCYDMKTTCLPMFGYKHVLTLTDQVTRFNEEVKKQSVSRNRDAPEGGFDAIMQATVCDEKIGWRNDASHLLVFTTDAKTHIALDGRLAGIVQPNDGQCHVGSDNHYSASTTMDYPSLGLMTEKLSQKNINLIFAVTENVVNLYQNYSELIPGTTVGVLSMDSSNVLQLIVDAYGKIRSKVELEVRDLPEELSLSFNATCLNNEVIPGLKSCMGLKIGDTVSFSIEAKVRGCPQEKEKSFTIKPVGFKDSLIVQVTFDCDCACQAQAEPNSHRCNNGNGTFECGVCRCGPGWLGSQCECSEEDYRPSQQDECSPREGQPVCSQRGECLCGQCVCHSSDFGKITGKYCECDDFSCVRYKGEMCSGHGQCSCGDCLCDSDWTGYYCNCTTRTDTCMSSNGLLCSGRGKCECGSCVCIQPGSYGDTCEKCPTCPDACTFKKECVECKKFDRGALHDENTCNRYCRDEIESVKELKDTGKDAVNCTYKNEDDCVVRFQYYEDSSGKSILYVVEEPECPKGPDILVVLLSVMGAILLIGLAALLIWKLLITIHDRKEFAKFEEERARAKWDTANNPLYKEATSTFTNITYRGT
Chain of Integrin alpha-IIb/beta-3 (P08514 32-887 limits assumed): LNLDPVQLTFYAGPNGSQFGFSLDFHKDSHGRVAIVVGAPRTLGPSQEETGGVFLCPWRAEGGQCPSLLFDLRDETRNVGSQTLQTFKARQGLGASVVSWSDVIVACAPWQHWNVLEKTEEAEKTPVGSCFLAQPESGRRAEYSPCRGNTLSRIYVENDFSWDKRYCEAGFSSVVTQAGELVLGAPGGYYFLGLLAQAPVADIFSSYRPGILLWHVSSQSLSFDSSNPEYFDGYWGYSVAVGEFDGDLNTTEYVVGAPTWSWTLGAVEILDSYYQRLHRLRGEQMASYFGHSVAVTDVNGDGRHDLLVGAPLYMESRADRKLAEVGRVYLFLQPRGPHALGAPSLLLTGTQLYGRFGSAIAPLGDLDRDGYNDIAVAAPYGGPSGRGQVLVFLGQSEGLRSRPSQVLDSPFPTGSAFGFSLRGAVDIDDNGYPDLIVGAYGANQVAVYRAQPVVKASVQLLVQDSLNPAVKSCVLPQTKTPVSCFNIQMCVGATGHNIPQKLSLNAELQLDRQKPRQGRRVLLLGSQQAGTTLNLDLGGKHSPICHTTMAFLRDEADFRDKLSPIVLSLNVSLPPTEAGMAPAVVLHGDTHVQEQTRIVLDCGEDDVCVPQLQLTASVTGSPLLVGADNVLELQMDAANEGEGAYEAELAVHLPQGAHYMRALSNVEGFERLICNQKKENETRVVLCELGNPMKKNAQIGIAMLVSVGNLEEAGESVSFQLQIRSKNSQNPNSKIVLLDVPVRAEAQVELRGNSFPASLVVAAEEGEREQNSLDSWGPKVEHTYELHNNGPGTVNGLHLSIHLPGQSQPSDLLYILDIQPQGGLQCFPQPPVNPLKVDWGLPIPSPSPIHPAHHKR
Chain of Integrin alpha-IIb/beta-3 (P08514 891-1039 limits assumed): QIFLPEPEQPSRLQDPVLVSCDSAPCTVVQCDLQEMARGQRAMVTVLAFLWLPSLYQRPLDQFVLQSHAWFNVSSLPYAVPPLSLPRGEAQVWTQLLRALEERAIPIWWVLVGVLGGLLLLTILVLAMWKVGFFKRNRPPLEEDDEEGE

Row | IC50 [nM] | SMILES
1 | 270 | CN(C(=O)[C@H](CC(=O)O)NC(=O)CCCCOc1ccc(C(=N)N)cc1)[C@@H](Cc1ccc(O)cc1)C(=O)O
2 | 640 | N=C(N)c1ccc(OCCCCC(=O)N[C@@H](CC(=O)O)C(=O)N[C@@H](Cc2ccc(O)cc2)C(=O)O)cc1
3 | 230 | CC(C)[C@H](NC(=O)[C@H](CC(=O)O)NC(=O)CCCCOc1ccc(C(=N)N)cc1)C(=O)O
4 | 88 | CC(C)[C@H](NC(=O)[C@H](CC(=O)O)NC(=O)CCCOc1ccc(C(=N)N)cc1)C(=O)O
